{"source": "PubChem BioAssay AID248", "about": "(DTP/NCI, 2004)", "test_system": "L1210 leukemia ip in BDF1 mice, survival T/C", "assay": "NCI In Vivo Anticancer Drug Screen. Data for tumor model L1210 Leukemia (intraperitoneal) in B6D2F1 (BDF1) mice", "details": "endpoint: mean survival time, higher = longer survival", "procedure,_shortened": "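Read-out is survival time, reported as the treated-group measurement over the vehicle-control measurement.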", "note": "Where “and” joins values, the source holds several entries; their conditions need not be identical. Identical values can stand only once. Toxic doses and inconclusive results are not listed.", "data": [{"smiles": "Nc1nc2n[nH]nc2c(=O)[nH]1", "values": [{"measurement": "T/C", "setting": "dose: 1.25 mg/kg/injection, schedule: Q01DX015 (ip), vehicle: clinical formulation", "result": "109 % of control"}, {"measurement": "T/C", "setting": "dose: 1.4 mg/kg/injection, schedule: Q01DX Z (ip), vehicle: carboxymethylcellulose (CMC)", "result": "109 % of control"}, {"measurement": "T/C", "setting": "dose: 2.5 mg/kg/injection, schedule: Q01DX015 (ip), vehicle: clinical formulation", "result": "107 % of control"}, {"measurement": "T/C", "setting": "dose: 2.8 mg/kg/injection, schedule: Q01DX Z (ip), vehicle: carboxymethylcellulose (CMC)", "result": "109 % of control"}, {"measurement": "T/C", "setting": "dose: 3.13 mg/kg/injection, schedule: Q01DX010 (ip), vehicle: alkali diluted with saline", "result": "108 % of control and 110 % of control"}, {"measurement": "T/C", "setting": "dose: 5.0 mg/kg/injection, schedule: Q01DX015 (ip), vehicle: clinical formulation", "result": "107 % of control"}, {"measurement": "T/C", "setting": "dose: 5.0 mg/kg/injection, schedule: Q01DX Z (oral), vehicle: carboxymethylcellulose (CMC)", "result": "115 % of control"}, {"measurement": "T/C", "setting": "dose: 5.59 mg/kg/injection, schedule: Q01DX Z (ip), vehicle: carboxymethylcellulose (CMC)", "result": "118 % of control"}, {"measurement": "T/C", "setting": "dose: 6.25 mg/kg/injection, schedule: Q01DX010 (ip), vehicle: alkali diluted with saline", "result": "122 % of control and 123 % of control"}, {"measurement": "T/C", "setting": "dose: 7.5 mg/kg/injection, schedule: Q01DX Z (sc), vehicle: carboxymethylcellulose (CMC)", "result": "112 % of control"}, {"measurement": "T/C", "setting": "dose: 10.0 mg/kg/injection, schedule: Q01DX015 (ip), vehicle: clinical formulation", "result": "117 % of control"}, {"measurement": "T/C", "setting": "dose: 10.0 mg/kg/injection, schedule: Q01DX Z (oral), vehicle: carboxymethylcellulose (CMC)", "result": "103 % of control"}, {"measurement": "T/C", "setting": "dose: 12.5 mg/kg/injection, schedule: Q01DX006 (iv), vehicle: water", "result": "104 % of control"}, {"measurement": "T/C", "setting": "dose: 12.5 mg/kg/injection, schedule: Q01DX Z (im), vehicle: water", "result": "121 % of control"}, {"measurement": "T/C", "setting": "dose: 12.5 mg/kg/injection, schedule: Q01DX Z (ip), vehicle: other", "result": "97 % of control"}, {"measurement": "T/C", "setting": "dose: 15.0 mg/kg/injection, schedule: Q01DX Z (sc), vehicle: carboxymethylcellulose (CMC)", "result": "106 % of control"}, {"measurement": "T/C", "setting": "dose: 20.0 mg/kg/injection, schedule: Q01DX015 (ip), vehicle: water", "result": "101 % of control"}, {"measurement": "T/C", "setting": "dose: 20.0 mg/kg/injection, schedule: Q01DX Z (oral), vehicle: carboxymethylcellulose (CMC)", "result": "95 % of control"}, {"measurement": "T/C", "setting": "dose: 22.35 mg/kg/injection, schedule: Q01DX Z (ip), vehicle: carboxymethylcellulose (CMC)", "result": "152 % of control"}, {"measurement": "T/C", "setting": "dose: 25.0 mg/kg/injection, schedule: Q01DX005 (ip), vehicle: other", "result": "111 % of control"}, {"measurement": "T/C", "setting": "dose: 25.0 mg/kg/injection, schedule: Q01DX006 (iv), vehicle: water", "result": "113 % of control"}, {"measurement": "T/C", "setting": "dose: 25.0 mg/kg/injection, schedule: Q01DX009 (ip), vehicle: saline", "result": "154 % of control and 160 % of control"}, {"measurement": "T/C", "setting": "dose: 25.0 mg/kg/injection, schedule: Q01DX009 (sc), vehicle: carboxymethylcellulose (CMC)", "result": "104 % of control"}, {"measurement": "T/C", "setting": "dose: 25.0 mg/kg/injection, schedule: Q01DX Z (ip), vehicle: other", "result": "106 % of control"}, {"measurement": "T/C", "setting": "dose: 30.0 mg/kg/injection, schedule: Q01DX Z (ip), vehicle: other", "result": "121 % of control"}, {"measurement": "T/C", "setting": "dose: 40.0 mg/kg/injection, schedule: Q01DX009 (ip), vehicle: other", "result": "159 % of control"}, {"measurement": "T/C", "setting": "dose: 40.0 mg/kg/injection, schedule: Q01DX Z (oral), vehicle: carboxymethylcellulose (CMC)", "result": "109 % of control"}, {"measurement": "T/C", "setting": "dose: 44.0 mg/kg/injection, schedule: Q01DX015 (ip), vehicle: water", "result": "98 % of control and 115 % of control"}, {"measurement": "T/C", "setting": "dose: 50.0 mg/kg/injection, schedule: Q01DX001 (ip), vehicle: steriod suspending solution", "result": "117 % of control"}, {"measurement": "T/C", "setting": "dose: 50.0 mg/kg/injection, schedule: Q01DX005 (ip), vehicle: other", "result": "122 % of control"}, {"measurement": "T/C", "setting": "dose: 50.0 mg/kg/injection, schedule: Q01DX009 (ip), vehicle: carboxymethylcellulose (CMC)", "result": "159 % of control"}, {"measurement": "T/C", "setting": "dose: 50.0 mg/kg/injection, schedule: Q01DX009 (ip), vehicle: other", "result": "155 % of control"}, {"measurement": "T/C", "setting": "dose: 50.0 mg/kg/injection, schedule: Q01DX009 (ip), vehicle: saline", "result": "156 % of control and 158 % of control"}, {"measurement": "T/C", "setting": "dose: 50.0 mg/kg/injection, schedule: Q01DX Z (im), vehicle: water", "result": "160 % of control"}, {"measurement": "T/C", "setting": "dose: 50.0 mg/kg/injection, schedule: Q01DX Z (oral), vehicle: other", "result": "93 % of control"}, {"measurement": "T/C", "setting": "dose: 50.0 mg/kg/injection, schedule: Q01DX Z (oral), vehicle: water", "result": "98 % of control"}, {"measurement": "T/C", "setting": "dose: 50.0 mg/kg/injection, schedule: Q01DX Z (sc), vehicle: water", "result": "154 % of control"}, {"measurement": "T/C", "setting": "dose: 60.0 mg/kg/injection, schedule: Q01DX009 (ip), vehicle: other", "result": "152 % of control"}, {"measurement": "T/C", "setting": "dose: 61.0 mg/kg/injection, schedule: Q01DX015 (ip), vehicle: water", "result": "156 % of control"}, {"measurement": "T/C", "setting": "dose: 62.0 mg/kg/injection, schedule: Q01DX001 (ip), vehicle: carboxymethylcellulose (CMC)", "result": "121 % of control"}, {"measurement": "T/C", "setting": "dose: 62.0 mg/kg/injection, schedule: Q01DX001 (sc), vehicle: carboxymethylcellulose (CMC)", "result": "106 % of control"}, {"measurement": "T/C", "setting": "dose: 64.0 mg/kg/injection, schedule: Q## X024 (ip), vehicle: other", "result": "150 % of control"}, {"measurement": "T/C", "setting": "dose: 75.0 mg/kg/injection, schedule: Q01DX009 (ip), vehicle: other", "result": "156 % of control"}, {"measurement": "T/C", "setting": "dose: 75.0 mg/kg/injection, schedule: Q02DX005 (ip), vehicle: carboxymethylcellulose (CMC)", "result": "159 % of control"}, {"measurement": "T/C", "setting": "dose: 87.0 mg/kg/injection, schedule: Q01DX001 (ip), vehicle: water", "result": "115 % of control and 122 % of control"}]}]}
